The values that follow are results of earlier work, collected in patent US20210135109A1, “ACCELERATED THERMAL CROSSLINKING OF PVDF-HFP VIA ADDITION OF ORGANIC BASES, AND THE USAGE OF CROSSLINKED PVDF-HFP AS GATE DIELECTRIC MATERIAL FOR OTFT DEVICES” (priority 2017, published 2021).

The conditions of the data set: water (measured in water unless otherwise specified).

For the compound `NCCCCCCN` [HMDA, Hexamethylenediamine], the “pKa (25° C., 1 atm)” value is 10.92 ± 0.10.
